Row | Compound | melting point [°C]
1 | Cc1nc(Cn2c(=O)sc3cc(F)c(N=C=S)cc32)no1 | 168 to 170
2 | Cc1cc(OCCCC(=O)N(CCCCO)C2CCCCC2)cc(C=O)c1[N+](=O)[O-] | 72 to 73
3 | COCCCn1nnnc1-c1cc(-c2cc(C(C)C)ccc2OC)c(OCc2ccccc2)cc1OCc1ccccc1 | 102 to 104
4 | CCOc1cc(-c2nc3ccccc3[nH]2)n[nH]1 | 217 to 220
5 | Cc1cnc2c(c1)C(=O)N(C(C)C)C2=O | 127 to 128
6 | COc1ccc(C2=CCN(Cc3n[nH]c4c(F)cccc34)CC2)cc1 | 183 to 185
7 | COC(=O)c1ccc(C(=O)O)cc1C(=O)OC | 168 to 169
8 | Cc1nc2c(O)cccc2n1C | 243 to 245
9 | COC(=O)c1ccc(OC)nc1S(=O)(=O)NC(=O)Nc1nc(OC)cc(OC)n1 | 194 to 196
10 | CC(C)c1c(C=C(Cl)Cl)c(-c2ccc(F)cc2)c2n1CCCC2 | 118 to 120
11 | COc1cc(Nc2c(C#N)cnc3cc(OCCN4CCN(C)CC4)c(OC)cc23)c(Cl)cc1Cl | 165 to 167
12 | CN(C)C1(c2cccc(F)c2)CCC(CC(=O)NCCCc2ccccc2)CC1 (stereo not given) | 119 to 122
13 | CCCOc1cc(C)ccc1-c1nc(N)c(N=O)c(=O)[nH]1 | 214 to 216
14 | COCCCNC(=O)c1ccc(C(=O)N2CCN(c3ncccc3NCC(C)C)CC2)nc1 | 109 to 110
15 | O=C(O)c1cn(-c2cccc(F)c2)c2c(F)c(F)c(F)cc2c1=O | 89 to 91
16 | CC(NC(=O)Nc1cc(Cl)ccc1CCc1cc(C(C)(C)C)c(O)c(C(C)(C)C)c1)c1ccccc1 (stereo not given) | 167 to 168
17 | CCc1ccc(C2COc3c(C)c(C)c(NC(=O)CC(C)(C)C)c(C)c32)cc1 (stereo not given) | 162 to 163
18 | CCCCCCCCCCCCCCCCCCOc1cc(OCCOc2ccc3ccccc3c2)cc(C(=O)O)c1 | 93 to 94
19 | COc1ccc2c(c1OCc1ccccc1)CCN(C(C)=O)C2 | 94 to 95
20 | CCOC(=O)c1cn(C)c2nc3c(F)c(N4CCNC(c5ccccc5)C4)c(F)cc3cc2c1=O (racemic) | 216
21 | COC(=O)c1cc(C=O)cnc1C1=NC(C)(C(C)C)C(=O)N1 (stereo not given) | 113 to 117
22 | Fc1cc(F)c2[nH]c3c(c2c1)CC(N1CCCCC1)CC3 (stereo not given) | > 290
23 | COc1c(N2CCNCC2)c(F)c(N)c2c(=O)c(C(=O)O)cn(C3CC3)c12 | 271 to 273
24 | O=C(CCCCCCCCC(=O)N(CCO)CCO)N(CCO)CCO | 87 to 98
25 | Nc1ncnn1C(=S)NCc1ccccc1 | 157 to 158

Row | Compound | melting point [°C]
26 | CCCC(O)c1ccc(Cl)c2nc3n(c12)CCCN3c1ccc(Cl)cc1Cl (stereo not given) | 220 to 221
27 | O=C(Nc1cccc(C(F)(F)F)c1)NC1CCN(S(=O)(=O)c2ccc(Cl)cc2)CC1 | 116 to 118
28 | CCCCCCCCC(=O)Oc1cc2c(s1)CCN(C(C(=O)C1CC1)c1ccccc1F)C2 (stereo not given) | 45 to 48
29 | O=C(NC(=O)c1c(F)cccc1F)Nc1ccc2c(c1)SC(c1ccc(Cl)cc1Cl)O2 (stereo not given) | 206 to 208
30 | CCCSc1sc(C(N)=O)c2c1-c1[nH]ncc1CC2 | 163 to 164
31 | COC(=O)COc1cc(C(=O)OC)nc2ccccc12 | 121 to 123
32 | CON(C)C(=O)c1ccc(-c2ccc(CBr)cc2)cc1 | 105 to 106
33 | Cc1cccc(CC(=O)c2ccnc(Br)c2)n1 | 126
34 | c1cn(CCCc2ccc(OCc3coc(-c4ccsc4)n3)cc2)cn1 | 102 to 103
35 | O=C(O)CCCc1ccc(N2CCOCC2)cc1 | 167 to 168
36 | CCn1cnc(C(N)=O)c1NC(=S)NC(=O)c1ccccc1 | 178 to 180
37 | O=c1c2ccccc2cc(Cl)n1-c1ccc(Cl)cc1 | 125 to 127
38 | CN1CCCC1c1ccc(Nc2cc(Br)cn(C)c2=O)nc1 (stereo not given) | 143 to 145
39 | Cc1cc(-n2cc(I)nc2C)ccc1[N+](=O)[O-] | 146 to 148
40 | C=CC(=O)NCCCCCCCCCCCCCCCCCC | 75 to 77
41 | CC(=O)OC1CCC2(C)C(CCC3C2CCC2(C)C(=O)CCC32O)C1 (stereo not given) | 182 to 184
42 | Cc1nc(-c2ccc3c(c2)CCCC3)co1 | 53 to 54
43 | CS(=O)(=O)N1CCN(c2ccc3c(c2)N2CCN=C2C(c2ccccc2)=[N+]3[O-])CC1 | 252 to 253
44 | COC(=O)c1[nH]c(C)c(C)c1OCCCl | 122 to 123
45 | CN1CC(Oc2ccc(Nc3cc(Br)cn(C)c3=O)nc2)C1 | 100 to 101
46 | CC(=O)c1ccc2oc3ccc(C(C)=O)cc3c(=O)c2c1 | 226 to 228
47 | CCN(CC)CCOc1ccc2c(c1)cc(OC)c1cc(OCCN(CC)CC)ccc12 | 63 to 65
48 | CCCCCCCCCCCCCC=CCC(O)C(=O)O (stereo not given) | 78 to 79.5
49 | O=C1C(=O)N(CCCN2CCN(C3c4ccccc4CCc4ccccc43)CC2)c2ccccc21 | 159 to 162
50 | COc1ccc2nc(C)cc(-n3cncn3)c2c1 | 117 to 118

Row | Compound | melting point [°C]
51 | COc1ccc(C=C2OC(=O)c3ccccc32)cc1N | 148 to 153
52 | CCCCCCC(C)(C)c1ccc(Br)c(OCc2ccccc2)c1 | 58 to 59
53 | C=C(C)Cc1cc(NC(C)=O)c(C)c(C)c1O | 149 to 151
54 | CC(C)(C)OC(=O)NC1Cc2ccccc2C(F)C1O (stereo not given) | 98 to 99
55 | CNC(=O)c1ccccc1Nc1nc(Nc2ccc3c(c2)CCC(NCC(F)F)CC3)ncc1Cl (stereo not given) | 182 to 183
56 | CCCc1nc2c(N)nc3cc(OCc4cccc(C)c4)ccc3c2n1CC(C)C | 200 to 203
57 | CC(=Cc1ccc(F)cc1)c1ccc2c(c1)C(C)(C)CCC2(C)C | 99 to 101
58 | O=C(O)C1(Cc2ccccc2)CCN(Cc2ccccc2)CC1 | 262
59 | CC(C)(c1ccc(O)cc1)c1ccc(O)c(Cl)c1 | 106 to 107
60 | O=c1[nH]c2ccccc2cc1-c1csc(-c2cccnc2)n1 | 197 to 198
61 | NC1=NC2CCCc3cccc(c32)N1 (stereo not given) | 230 to 232
62 | O=C1O[C@@H](CNC(=S)C(F)F)CN1c1ccc(N2CCS(=O)(=O)CC2)c(F)c1 | 146 to 147
63 | Cn1cc(C2=C(c3c4n(c5ccccc35)C[C@@H]3CN(C(=O)OC(C)(C)C)C[C@@H]3C4)C(=O)NC2=O)c2ccccc21 (relative stereo) | 173 to 175
64 | OCC1(Nc2nc(-c3ccc(Br)cc3)cs2)CC1 | 129 to 131
65 | Cc1cc(C(=O)NC2CC2)ccc1N1CCNCC1 | 172 to 173
66 | CCOC(=O)c1cn(-c2ccc(C(F)(F)F)cc2)nc1C(C)C | 74 to 75
67 | O=c1c(CCCc2cncnc2)cc2cccnc2n1-c1cccc([N+](=O)[O-])c1 | 175 to 176
68 | Cc1cc(C)c(C(CO)c2ccc(C(C)C)cc2)c(O)c1C (stereo not given) | 101 to 102
69 | Cc1nc2cccc(C3CC3CN3C(=O)c4ccccc4C3=O)c2s1 (stereo not given) | 151 to 153
70 | CC(C)c1ccc(C2(NC(=O)c3ccccc3)C(=O)c3ccccc3C2=O)c(OC(=O)c2ccccc2)c1 | 138 to 140
71 | CCNC(=O)Nc1nc2cc(-c3ccc(OC)nc3)ccn2n1 | 230 to 233
72 | CCOC(=O)C(Cc1ccc(O)cc1)C(=O)OCC | 45
73 | CC(=O)OCc1cn(C(c2ccccc2)(c2ccccc2)c2ccccc2)cn1 | 133 to 134
74 | CC(C)n1cc(C(=O)NCc2ccc(Cl)cc2)c(=O)c2cc(CN3CCOCC3)sc21 | 191 to 195
75 | CCOC(=O)c1conc1-c1ccc(F)c(Cl)c1 | 108 to 109

Row | Compound | melting point [°C]
76 | COC(=O)NC1CCc2ccsc2C1 (stereo not given) | 156 to 157
77 | CN(C)c1ccc(NC(=O)N(CC(C)(C)C)C[C@H]2CC[C@H](CN(CC(C)(C)C)C(=O)Nc3ccc(N(C)C)cc3)CC2)cc1 | 178 to 181
78 | CC(C)(C)OC(=O)NCc1ccc(CNC(=O)[C@@H](CCCNC(N)=N[N+](=O)[O-])NC(=O)C(c2ccccc2)c2ccccc2)cc1 | 198
79 | CCCn1nc2c(N)nc3ccccc3c2c1CC(C)(C)NC(=O)c1ccncc1 | 148 to 150
80 | O=Cc1ccc2c(n1)COC(c1ccccc1)O2 (stereo not given) | 110 to 114
81 | Cc1cc(CCCCCOc2c(Cl)cc(-c3cccs3)cc2Cl)on1 | 45 to 47
82 | Cc1cc(-c2ccccc2)n(-c2ccc(C(=O)O)cc2)n1 | 159 to 162
83 | CCNC(=O)c1c([Si](C)(C)C)ccc(OC)c1Cl | 136 to 137
84 | CCC1c2cccn2-c2ccc(F)cc2N1S(=O)(=O)c1cc(C)c(OC)c(C)c1 (stereo not given) | 140 to 142
85 | Cc1cc2c(cc1C(F)(F)F)NC(=O)CC(c1cccc(-c3ncoc3C)c1)=N2 | 241 to 242
86 | COc1ccc(N2CCN(c3c(C)c(C)c4c(c3C)CC(C)(CN3CCC(=O)CC3)O4)CC2)cc1 (stereo not given) | 123 to 127
87 | CC12C=CC(=O)C=C1CCC1C2C(=O)CC2(C)C(C(=O)CO)CCC12 (stereo not given) | 203 to 206
88 | COC(=O)c1cc(NC(=O)OC(C)(C)C)c(N)cc1I | 60 to 78
89 | COc1ccc2c(c1)c(CC(=O)O)c(C)n2Cc1ccccc1OC | 176 to 180
90 | CC(C)Oc1ccc(-c2ccc3nc(C(=O)NC(Cc4ccc(OCc5ccccc5)cc4)C(=O)O)cn3c2)cc1 (stereo not given) | 263
91 | O=c1c2cc3ccccc3cc2nc(CSc2ncnc3[nH]cnc23)n1-c1ccccc1Cl | 248 to 254
92 | O=C(CN1CCC(Cc2ccccc2)CC1)Nc1ccc2[nH]cnc2c1 | 185 to 189
93 | CCCn1c(COCC)nc2c(N)nc3cc(OCCN4CCOCC4)ccc3c21 | 191 to 192
94 | CCCOc1ccc(NC(=O)N2CCN(c3ncnc4cc(OC)c(OC)cc34)CC2)cc1 | 218 to 220
95 | Cc1[nH]cnc1CC1CCc2c(C)c3cc(Cl)ccc3n2C1=O (stereo not given) | 244 to 246
96 | O=C(O)COc1ccc(SCc2ccc(-c3ccc(C(F)(F)F)cn3)cc2)c2c1CCCO2 | 178 to 179
97 | Cc1cc(=O)[nH]c(NC(=N)Nc2ccccc2C)n1 | 260
98 | COC(=O)C(=CNc1ncnc2ccc(NC(=O)CC(C)(C)C)cc12)C(=O)OC | 196 to 198
99 | Cc1noc(C)c1CC(C)(NC(=O)OC1C2CC3CC(C2)CC1C3)C(=O)NCCc1ccccc1 (stereo not given) | 70 to 73
100 | O=c1c2cnc(-c3ccccc3)nc2sn1Cc1ccccc1 | 166 to 167
